From US12679824B2 (Hoffmann-La Roche Inc., priority 2020, dated 2026)
Values after ≈ are worked out from the molar mass of the structure shown.

system: Acinetobacter baumannii ATCC17978; experiment: Minimal Inhibitory Concentration (MIC) assay; assay type: cell-based; settings: Acinetobacter baumannii ATCC17978; CAMHB; 20 hours at 35±2° C.; lowest concentration that inhibits visible growth; read-out: ATCC 17978 MIC
Experimental: Minimal Inhibitory Concentration Protocol (MIC) Assay:
Table 2 provides the in vitro potency of the compounds of present invention obtained against the strain Acinetobacter baumannii ATCC17978, which was assessed by an MIC (Minimal Inhibitory Concentration) assay as follows.
Test compounds were prepared from 10 mM DMSO stock solutions. The top dose was diluted from 10 mM to 2.5 mM by DMSO, followed by serial 2-fold 11 points dilutions in DMSO in a master plate (Greiner, Cat No: 651201). 2 μL compounds were transferred from the master plate into a new 96-well assay plate (Costar, 3599).
The growth medium […] Mueller Hinton Broth (CAMHB) was prepared by adding 22 g powder (BD, 212322) in 1 L purified water, autoclaved, and supplemented with sterilized CaCl2) (20 mg per liter) and MgCl2 (10 mg per liter).
Vials of each of the test microorganisms were maintained frozen in the vapor phase of a liquid nitrogen freezer. Took out the bacterial strain ATCC 17978 from liquid nitrogen freezer, thawed it at room temperature, and diluted the bacterial in the CAMHB medium to achieve a final inoculum of 2×10^5 CFU/mL. 98 μL of the adjusted bacteria suspension was dispensed to the assay plate and pipetted 5 times.
Then the assay plates were incubated for 20 hours at 35±2° C. in ambient air with humidity. Following incubation, MIC (μg/mL) value, the lowest concentration of drug that inhibits visible growth of the microorganism, was recorded by visual judgment of bacterial growth through magnification mirror of MIC reader, and the assay plates were photographed with Qcount system as image raw data. Meanwhile, the OD600 of assay plates was recorded with SpectraMax Plus384 as OD raw data.

| MIC | Compound |
| --- | --- |
| 4.43 µg/mL | Cn1c(-c2cn(-c3ncccn3)nc2C(F)(F)F)cnc1C(=O)Nc1ccc(C(=O)N[C@H]2[C@@H]3CN(C(=O)[C@@H]4C[C@@H](O)CN4)C[C@@H]32)c(Cl)c1.O=CO [Example F2, N-[3-chloro-4-[[(1R,5S)-3-[(2S,4R)-4-hydroxypyrrolidine-2-carbonyl]-3-azabicyclo[3.1.0]hexan-6-yl]carbamoyl]phenyl]-1-methyl-5-[1-pyrimidin-2-yl-3-(trifluoromethyl)pyrazol-4-yl]imidazole-2-carboxamide] |
| 1.12 µg/mL | CNc1ccc(-n2cc(-c3cnc(C(=O)Nc4ccc(C(=O)N5CCN(C(=O)[C@@H]6CCNC[C@H]6O)CC5)c(Cl)c4)n3C)c(C(F)(F)F)n2)nc1.O=CO [Example D2] |
| 1.16 µg/mL | CNc1ccc(-n2cc(-c3cnc(C(=O)Nc4ccc(C(=O)N5CCN(C(=O)C6(O)CCNCC6)CC5)c(Cl)c4)n3C)c(C(F)(F)F)n2)nc1.O=CO [Example D3, N-[3-chloro-4-[4-(4-hydroxypiperidine-4-carbonyl)piperazine-1-carbonyl]phenyl]-1-methyl-5-[1-[5-(methylamino)-2-pyridyl]-3-(trifluoromethyl)pyrazol-4-yl]imidazole-2-carboxamide] |
| 4.41 µg/mL | Cn1c(-c2cn(-c3ncccn3)nc2C(F)(F)F)cnc1C(=O)Nc1ccc(C(=O)N[C@H]2[C@@H]3CN(C(=O)C4CCNCC4)C[C@@H]32)c(Cl)c1.O=CO [Example F3, N-[3-chloro-4-[[(1S,5R)-3-(piperidine-4-carbonyl)-3-azabicyclo[3.1.0]hexan-6-yl]carbamoyl]phenyl]-1-methyl-5-[1-pyrimidin-2-yl-3-(trifluoromethyl)pyrazol-4-yl]imidazole-2-carboxamide] |

The next lines start with the compound.

| Compound | MIC |
| --- | --- |
| CCc1nn(-c2ccc(N)cn2)cc1-c1cnc(C(=O)Nc2ccc(C(=O)N3CCN(C(=O)C4CCN(C)CC4)CC3)c(Cl)c2)n1C [Example C13, 5-[1-(5-amino-2-pyridyl)-3-ethyl-pyrazol-4-yl]-N-[3-chloro-4-[4-(1-methylpiperidine-4-carbonyl)piperazine-1-carbonyl]phenyl]-1-methyl-imidazole-2-carboxamide] | 16.5 µg/mL (≈ 25 µM) |
| CN1CCC(C(=O)N2CCN(C(=O)c3ccc(NC(=O)c4ncc(-c5cn(-c6ccc(N)nn6)nc5C(F)(F)F)n4C)cc3Cl)CC2)CC1 [Example C14, 5-[1-(6-aminopyridazin-3-yl)-3-(trifluoromethyl)pyrazol-4-yl]-N-[3-chloro-4-[4-(1-methylpiperidine-4-carbonyl)piperazine-1-carbonyl]phenyl]-1-methyl-imidazole-2-carboxamide] | 5.09 µg/mL (≈ 7.27 µM) |
| CN(C)c1ccnc(-n2ncc(-c3cnc(C(=O)Nc4ccc(C(=O)N5CCN(C(=O)C6CCNCC6)CC5)c(Cl)c4)n3C)c2C(F)(F)F)n1.O=C(O)C(F)(F)F [Example A18, N-[3-chloro-4-[4-(piperidine-4-carbonyl)piperazine-1-carbonyl]phenyl]-5-[1-[4-(dimethylamino)pyrimidin-2-yl]-5-(trifluoromethyl)pyrazol-4-yl]-1-methyl-imidazole-2-carboxamide] | 2.23 µg/mL |
| Cc1nn(-c2ccc(N)cn2)cc1-c1cnc(C(=O)Nc2ccc(C(=O)N3CCN(C(=O)C4CCN(C)CC4)CC3)c(Cl)c2)n1C [Example C12, 5-[1-(5-amino-2-pyridyl)-3-methyl-pyrazol-4-yl]-N-[3-chloro-4-[4-(1-methylpiperidine-4-carbonyl)piperazine-1-carbonyl]phenyl]-1-methyl-imidazole-2-carboxamide] | 38 µg/mL (≈ 58.8 µM) |
| COc1cnc(-n2cc(-c3cnc(C(=O)Nc4ccc(C(=O)N5CCN(C(=O)C6CCNCC6)CC5)c(Cl)c4)n3C)c(C(F)(F)F)n2)nc1.O=CO [Example A4, N-[3-chloro-4-[4-(piperidine-4-carbonyl)piperazine-1-carbonyl]phenyl]-5-[1-(5-methoxypyrimidin-2-yl)-3-(trifluoromethyl)pyrazol-4-yl]-1-methyl-imidazole-2-carboxamide] | 2.19 µg/mL |
| COCCOc1ccc(-n2cc(-c3cnc(C(=O)Nc4ccc(C(=O)N5CCN(C(=O)C6CCNCC6)CC5)c(Cl)c4)n3C)c(C(F)(F)F)n2)nc1.O=CO [Example A7, N-[3-chloro-4-[4-(piperidine-4-carbonyl)piperazine-1-carbonyl]phenyl]-5-[1-[5-(2-methoxyethoxy)-2-pyridyl]-3-(trifluoromethyl)pyrazol-4-yl]-1-methyl-imidazole-2-carboxamide] | 1.16 µg/mL |

same assay, conditions: Acinetobacter baumannii, ATCC17978, 20 h, read-out: ATCC 17978 MIC

| Compound | MIC |
| --- | --- |
| CNc1ccc(-n2cc(-c3cnc(C(=O)Nc4ccc(C(=O)N5CCN(C(=O)C6CCNCC6)CC5)c(Cl)c4)n3C)c(C(F)(F)F)n2)nc1 [Example D1, N-[3-chloro-4-[4-(piperidine-4-carbonyl)piperazine-1-carbonyl]phenyl]-1-methyl-5-[1-[5-(methylamino)-2-pyridyl]-3-(trifluoromethyl)pyrazol-4-yl]imidazole-2-carboxamide] | 0.55 µg/mL (≈ 0.787 µM) |
